The text below walks through data of patent US20240342255A1, “TARGETING 3-KETODIHYDROSPHINGOSINE REDUCTASE (KDSR) IN CANCER” (UNIVERSITY OF MASSACHUSETTS, priority 2021, published 2024).

Several values for one entry are separate records, joined by “and”; a condition that tells them apart may be missing. Identical values can stand only once. Residues, ends and D or L forms follow the SMILES beside them. *: point of attachment. Cbz = O=C(OCc1ccccc1)*

Holding throughout (format): cell-based
Data set [1] relates to DLD1 cells. The data set is described as follows: Cell viability (CellTiter-Glo) with exogenous 3KDS treatment. The protocol: Cell viability was measured using CellTiter-Glo 2.0 Cell Viability Assay (Promega), which measures the number of viable (metabolically active) cells in culture by quantitating the amount of ATP present. CellTiter-Glo (CTG) Reagent and 96 well plates containing the cells were equilibrated to room temperature, 20 ul of CTG reagent was added to each well of cells and incubated for 20 minutes protected from light. Luminescence was read with an integration time of 1.0 sec using the Beckman Coulter DTX880 Multimode Detector plate reader.
For determination of relative viability as depicted in figures, CTG was measured at 2 different timepoints. The first viability measurement was taken as the baseline on the day after cells were plated to 96 wells, and the second viability measurement was taken at a later timepoint (1-5 days after baseline) to calculate the fold change viable cells over time for each condition (Day X CTG/Baseline CTG). These fold change values were then divided by the fold change of the control condition (=1.0) to determine the relative viability.
For orientation: Cellular ATP, detected with luciferase, serves as a proxy for viable cell number.

The test system of data set [2] is DLD1 cells. Description: Cell morphology by light microscope / calnexin immunofluorescence.
Data set [3] deals with DLD1 cells. Description: Western blot of K48 ubiquitinated proteins. The following applies: DLD1 cells treated with MG132 (FIG. 4C). The protocol: (§1) Cells were washed in cold PBS and resuspended in 1% Triton-X 100 containing protease inhibitor cocktail and lysed on ice. Following cell lysis, samples were centrifuged at 13,000 rpm at 4° C. for 10 min to remove cell debris and the supernatant (cell lysate) was collected. The protein concentration of each lysate was measured by Bradford Assay. Western blot samples were prepared by diluting lysates in 6× Laemmli Buffer and boiled at 95° C. for 10 min. Samples were loaded to polyacrylamide gels at equal protein concentrations and analyzed by standard SDS-PAGE western blotting techniques. Protein levels were detected using HRP-conjugated secondary antibodies and chemiluminescent substrates (Pierce ECL or Pico PLUS).

The test system of data set [4] is DLD1 cells. Description: Protein aggresome staining. The following applies: 3 μM MG132, 18 hr. As to the method:
Cells were grown on coverslips coated with PDL/laminin and were stained for protein aggresomes at 9 days post lentiviral infection for CTRL or KDSR KO or 18 hr post treatment with vehicle or 3 uM MG132. Protein aggresomes were detected using the PROTOEOSTAT Aggresome detection kit (Enzo Life Sciences), which contains a dye that fluoresces upon intercalation into the cross-beta spine of protein structures found in misfolded and aggregated proteins. For aggresome staining, cells were fixed in 4% PFA, washed in PBS, and permeabilized in 0.5% TXB on ice with gentle shaking for 30 minutes. Cells were washed in PBS following permeabilization and were subsequently incubated with the Aggresome Detection Reagent diluted 1:2000 in PBS for 45 min at room temperature protected from light. Cells were washed with PBS after staining and coverslips were mounted to microscope slides using ProLong Gold Antifade Mountant containing DAPI. Cells were imaged using the Zeiss LSM700 confocal microscope and Zen Black 2012 Software.

Data set [5] concerns DLD1 cells. The data set is described as follows: LC-MS quantification of 3KDS in cultured cells. As to the method: The levels of 3-ketodihydrosphingosine (3KDS) were quantified in both cells grown in culture and in tumor tissues from the in vivo xenograft experiment. Lipid analysis was performed at the UCSD Lipidomics Core^17. For the in vitro experiment, DLD1 cells were infected for lentiviral transduction of pLCv2 with nontargeting CTRL guide, KDSR g1, or SPTLC1 g1. Cells were selected with puromycin for 5 days and were treated with the appropriate conditions (vehicle, 50 uM palmitate, 15 uM myriocin) at 6 days post infection. Cells were trypsinized, quickly washed 2× in cold PBS, centrifuged, and the cell pellet was collected for analysis at 8 days post lentiviral infection and 48 hr post treatment. 3KDS quantification was normalized to the protein content of n=3 independently prepared cell extracts for each condition.
Samples were extracted with DCM/MeOH (1:1) and 1× internal standards were added to extracts. Samples were vortexed, sonicated for 10 minutes, and then centrifuged at 5000 rpm for 5 min. Samples were re-extracted, combined, and dried down in a speed vac. Samples were run on the ACQUITY UPLC System (Waters) on a Phenomenex Kinetex C18 column. Mass spectrometry analysis was performed on the Sciex 6500 Qtrap mass spectrometer and data were analyzed using Sciex Analyst and Multiquant software packages.

The test system of data set [6] is DLD1 cells. The data set is described as follows: Myriocin rescue and palmitate synergy viability experiments in KDSR KO cells. As to the method:
Cells were plated to 6 wells and infected with lentiviruses containing pLCv2 CTRL or guides targeting KDSR. Cells were selected with puromycin for 4-5 days and were then counted and plated to 96 well plates at 6 days post lentiviral infection at 600-800 cells/well in technical triplicate or quadruplicate. Baseline cell viability was read at 7 days post infection, at which time the other 96 well plates (to be read at later timepoints) were treated with DMSO vehicle or 2 uM myriocin for rescue experiments or with EtOH vehicle or 50 uM palmitate for synergy experiments. For myriocin rescue experiments, subsequent CTG readings were taken at days 3 and 5 post treatment (10 and 12 days post infection) to determine the effect of SPT inhibition on KDSR KO toxicity. For synergy experiments, subsequent CTG readings were taken at 24, 48, and 72 hr post treatment (8, 9, and 10 days post infection) to measure the effect of KDSR KO and palmitate treatment on cell viability relative to CTRL vehicle treated cells.
To determine whether KDSR KO and 50 uM palmitate have a synergistic toxic effect on cells (FIG. 2C), we used the Bliss Independence Model. […]

In data set [7] the test system is DLD1 cells. Description: Lipid free viability assay. The following applies: 15 μM myriocin, 72 hr, 10% charcoal stripped serum (FIG. 1F). As to the method:
DLD1 cells were grown in media with 10% FBS (normal growth condition) or 10% charcoal stripped serum (lipid free condition) for 1 week prior to lentiviral infection for CRISPR-mediated gene KO. Cells were infected in 6 wells, selected with puromycin, and plated to 96 wells as described previously in the appropriate serum conditions throughout the entirety of the experiment. Baseline CTG was measured at day 7 post infection, and subsequently at day 10 post infection. For the myriocin treated condition, CTRL cells were treated with 15 μM myriocin at day 7 post infection and were treated for 72 hr at the time of day 10 CTG measurement. Viability was calculated over the course of 3 days of growth and measured relative to CTRL untreated condition.

For data set [8], the system named is DLD1 cells. Description: LC-MS quantification of sphingomyelin and ceramide after CRISPR-Cas9 gene KO. The following applies: biological replicates (1)-(3); for Total (RATIO), Cer + SM by LC-MS / Cer (RATIO), total ceramide level by LC-MS / SM (RATIO), total sphingomyelin level by LC-MS: 8 days post lentiviral infection; for Cer (RATIO), total ceramide level by LC-MS / SM (RATIO), total sphingomyelin level by LC-MS: normalized intensities relative to internal standards per mg protein. As to the method: DLD1 cells were plated to 6 wells and infected for lentiviral transduction of lentiCRISPR v2 with nontargeting CTRL guide, KDSR g1, or SPTLC1 g1, with each condition infected in biological triplicate. Cells were selected with puromycin for 5 days and collected for analysis at 8 days post lentiviral infection. Cells were trypsinized, quickly washed 2× in cold PBS, centrifuged, and the cell pellet was collected for analysis. Lipid analysis was performed at the UCSD Lipidomics Core^17. For quantification of sphingomyelin and ceramide species, samples were extracted via Butanol-Methanol (BUME) with 100 ul/sample. The lipid (top) layer was collected, solvent was removed, and samples were reconstituted in 100 ul LC solvent (18:1:1, IPA/DCM/MeOH). Samples were run on Reverse Phase-Ultra Performance Liquid Chromatography (Thermo Vanquish UPLC) on the Cortecs T3 C18 column. Mass spectrometry was performed on the Thermo Q Exactive Mass Spectrometer with MS/MS data dependent acquisition scan mode and analyzed with Lipid Data Analyzer (LDA) and LipidSearch software. All data are expressed as normalized intensities relative to exactly measured internal standards and constitute relative abundances per mg protein. For the identification of each lipid molecular species including its exact fatty acid composition, we used MS/MS footprinting techniques. Details of methods and nomenclature used were adapted from a previous study^18.
Total sphingomyelin levels under each condition were calculated as the sum of 121 analytes and total ceramide levels as the sum of 81 analytes. The ratio of total sphingomyelin and ceramide levels in KDSR and SPTLC1 KO cells were calculated relative to CTRL cells as shown in FIG. 1e. The select species of sphingomyelins and ceramides shown in Extended Data FIG. 2 represent the top 10 most abundant species that were detected in all 3 biological replicate samples of the CTRL condition to show the effect of SPTLC1 and KDSR KO on the most abundant sphingolipids compared to CTRL.

For the next data set, the system named is KDSR. The data set is described as follows: Western blot of KDSR protein after CRISPR/Cas9 targeting in non-cancerous cell lines. The following applies: seven non-cancerous cell lines (THLE3, CCD841CON, CCD18Lu, HIEC6, HS67, GM05565, GM02037), FIGS. 10A-10G. The protocol: as §1
Western blots were performed to confirm that KDSR expression was reduced or eliminated in the cell line after CRISPR/Cas9 KO of KDSR. […] For each experiment, actin served as a loading control.

For `CCCCCCCCCCCCCCCC(=O)C(N)CO` (stereo not drawn) [3KDS, 3-ketodihydrosphingosine], the “effect of exogenous 3KDS on cell viability” value in the data set with DLD1 cells [1] (DLD1 cells, various doses, 24 hr (FIG. 2B)) is “cell toxicity”. The “toxicity of 3KDS in KDSR KO cells” value in the data set with DLD1 cells [1] (KDSR g1 and g2 KO DLD1 cells, 5 μM 3KDS, 24 hr (FIG. 6)) is “even more toxic”. Further, the “cell morphology after 3KDS treatment” value in the data set on DLD1 cells [2] (wildtype DLD1 cells, 10 μM 3KDS, 24 hr (FIG. 2G)) was “aberrant ‘vacuolar’ morphology”.
With `CC(C)C[C@@H](C=O)NC(=O)[C@H](CC(C)C)NC(=O)[C@H](CC(C)C)NC(=O)OCc1ccccc1` [MG132, MG-132] (Cbz-Leu-Leu-Leu-aldehyde), the “levels of K48 ubiquitinated proteins” value in the data set on DLD1 cells [3] was “accumulation of K48 ubiquitinated proteins”. In addition, in the data set on DLD1 cells [4], the protein aggresome formation entry is on record as “induced formation of protein aggresomes”. Besides, in the data set on DLD1 cells [2] (DLD1 cells, 3 μM MG132, 18 hr, light microscope and calnexin IF (FIG. 4D)), the “morphological phenotype / ER structure” value is reported as “strongly resembled the aberrant enlarged ER structures”.
In the case of `CCCCCCC(=O)CCCCCC/C=C/C[C@@H](O)[C@H](O)[C@@](N)(CO)C(=O)O` [myriocin, Myriocin], in the data set with DLD1 cells [5] (KDSR KO DLD1 cells, 15 μM myriocin, 48 hr (FIG. 2F)), the “3KDS accumulation in KDSR KO cells under SPT inhibition” value is recorded as “prevented 3KDS accumulation”. Also, the “effect of myriocin on viability of KDSR KO cells” value in the data set on DLD1 cells [6] (2 μM myriocin, 72 hr (FIG. 2D)) was “rescued against the loss of viability”. Moreover, the “viability in lipid-free serum” value in the data set with DLD1 cells [7] is on record as “detrimental to cancer cell viability”. For the same compound, the “morphology of KDSR KO cells under SPT inhibition” value in the data set with DLD1 cells [2] (KDSR KO DLD1 cells, 15 μM myriocin, 48 hr (FIG. 2G)) was “rescued the aberrant morphological phenotype”.
Take `CCCCCCCCCCCCCCCC(=O)O` [palmitate, Palmitic Acid]: in the data set on DLD1 cells [5] (KDSR KO DLD1 cells treated with 50 μM palmitate, 48 hr, relative to CTRL vehicle (FIG. 2F)), the “accumulation of 3KDS” value was 800 fold. Further, the “effect of palmitate on viability of KDSR KO cells (Bliss independence)” value in the data set on DLD1 cells [6] (50 μM palmitate, 48 hr (FIG. 2C)) is recorded as “synergized with the toxic effect of KDSR KO”.
As to “KDSR g1: CRISPR-Cas9 guide RNA targeting KDSR, TGTGTGCAAACCAGAACAGG, SEQ ID NO: 4 (listed as DNA, chemistry not given here; listed as Homo sapiens)”, in the data set with DLD1 cells [8], the “Total (RATIO), Cer + SM by LC-MS” value was 535.9 and 709.0 and 681.9; the “Cer (RATIO), total ceramide level by LC-MS” value is 67.9 and 101.4 and 99.2; the “SM (RATIO), total sphingomyelin level by LC-MS” value is 468.0 and 607.6 and 582.7; the “Cer (Percentage of total)” value is 12.7% and 14.3% and 14.5%. Further, the “SM (Percentage of total)” value in the data set on DLD1 cells [8] is 87.3% and 85.7% and 85.5%. Besides, the “KDSR expression after CRISPR/Cas9 targeting” value in the data set on KDSR is “eliminated or substantially reduced”.
On to “KDSR g2: CRISPR-Cas9 guide RNA targeting KDSR, GGCAAACTTGGATGCAGAGT, SEQ ID NO: 5 (listed as DNA, chemistry not given here; listed as Homo sapiens)”, for which the “KDSR expression after CRISPR/Cas9 targeting” value with KDSR is “eliminated or substantially reduced”.
On to “SPTLC1 g1: CRISPR-Cas9 guide RNA targeting SPTLC1, GTGCTACTCACCTTAACCCT, SEQ ID NO: 2 (expressed or natural sequence; listed as Homo sapiens)”, for which, in the data set with DLD1 cells [8], the “Total (RATIO), Cer + SM by LC-MS” value was 720.1 and 485.8 and 520.4; the “Cer (RATIO), total ceramide level by LC-MS” value is 66.2 and 36.6 and 66.9; the “SM (RATIO), total sphingomyelin level by LC-MS” value was 653.9 and 449.2 and 453.5; the “Cer (Percentage of total)” value was 9.2% and 7.5% and 12.9%. The “SM (Percentage of total)” value in the data set on DLD1 cells [8] is 90.8% and 92.5% and 87.1%.
